In the supplement of paper PMC10307832:

Legend:
Assay in all cases: relative viability (nuclei count vs DMSO), 5 days (fraction); higher = more cells survive
[1] = compound: CCn1c(-c2nonc2N)nc2cnc(Oc3cccc(NC(=O)c4ccc(OCCN5CCOCC5)cc4)c3)cc21 + CC(C)C[C@H](NC(=O)[C@H](Cc1ccccc1)NC(=O)c1cnccn1)B(O)O [Bortezomib] (partner 0.002 µM)
Procedure, shortened: (§1)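 Five library-drug doses in √10 steps were combined with a fixed anchor-drug dose, or a single drug was given alone, by pin tool to lung cancer cell lines in 1536-well plates the day after seeding. Nuclei were stained and counted after 5 days. Relative viability is the nuclei count in treated wells over that in vehicle wells, taken as the median of duplicate plates.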

[2] = compound: CCC1=CN=CN=C1N2CCN(CC2)CC3=NC4=C(N3)C=C(C=C4)C(F)(F)F + CC(=O)c1c(C)c2cnc(Nc3ccc(N4CCNCC4)cn3)nc2n(C2CCCC2)c1=O [Palbociclib] (partner 0.5 µM)
Procedure, shortened: as §1

[3] = compound: CCn1c(-c2nonc2N)nc2cnc(Oc3cccc(NC(=O)c4ccc(OCCN5CCOCC5)cc4)c3)cc21 + CS(=O)(=O)CCNCc1ccc(-c2ccc3ncnc(Nc4ccc(OCc5cccc(F)c5)c(Cl)c4)c3c2)o1 [Lapatinib] (partner 2 µM)
Procedure, shortened: as §1

[4] = compound: CCn1c(-c2nonc2N)nc2cnc(Oc3cccc(NC(=O)c4ccc(OCCN5CCOCC5)cc4)c3)cc21 + COc1cc2c(Oc3ccc(NC(=O)C4(C(=O)Nc5ccc(F)cc5)CC4)cc3F)ccnc2cc1OCCCN1CCOCC1 [Foretinib] (partner 0.25 µM)
Procedure, shortened: as §1

Cell Line	relative viability ([1]; first compound 0.04 µM)	relative viability ([1]; first compound 0.1265 µM)	relative viability ([1]; first compound 0.4 µM)	relative viability ([1]; first compound 1.265 µM)	relative viability ([1]; first compound 4 µM)	relative viability ([2]; first compound 0.04 µM)	relative viability ([2]; first compound 0.1265 µM)	relative viability ([2]; first compound 0.4 µM)	relative viability ([2]; first compound 1.265 µM)	relative viability ([2]; first compound 4 µM)	relative viability ([3]; first compound 0.04 µM)	relative viability ([3]; first compound 0.1265 µM)	relative viability ([3]; first compound 0.4 µM)	relative viability ([3]; first compound 1.265 µM)	relative viability ([3]; first compound 4 µM)	relative viability ([4]; first compound 0.04 µM)	relative viability ([4]; first compound 0.1265 µM)	relative viability ([4]; first compound 0.4 µM)	relative viability ([4]; first compound 1.265 µM)	relative viability ([4]; first compound 4 µM)
H3255	1.03	0.9	0.728	0.526	0.531	0.313	0.308	0.325	0.292	0.343	0.293	0.305	0.237	0.271	0.256	1.22	0.834	0.679	0.668	0.642
HARA	1.19	0.943	0.36	0.176	0.145	0.281	0.314	0.283		0.295	0.826	0.732	0.27	0.217	0.213	1.13	1.09	0.906	0.939	0.883
HCC-15	1.2	0.992	0.882	0.757	0.913	0.717	0.723	0.646	0.612	0.682	0.962	0.736	0.779	0.628	0.745	1.13	0.951	0.998		0.906
HCC-78	0.465	0.53	0.494	0.605	0.705	0.447	0.461	0.477	0.451	0.468	0.905	0.906	0.461	0.816	0.756	0.596	0.584		0.64	0.713
HCC-366	1.32	1.11	0.151	0.0688	0.0348	0.319	0.328	0.321	0.34	0.383	1.25	1.01	0.251	0.0431	0.0373	0.946	1	0.907	0.937	0.968
HCC-827	0.99	1.04	0.906	0.666	0.885	0.497	0.53	0.498	0.431	0.468	0.195	0.273	0.197	0.251	0.21	1.11	1.05	0.996	0.877	0.751
HOP-62	0.875	0.829	0.816	0.756	0.212	0.475	0.451	0.414	0.438	0.413	1.16	1.02	0.996	0.866	0.461	1.12	1.22	1.02	0.864	0.789
LC-2-ad	1.1	0.936	0.756	0.448	0.281	0.471	0.48	0.501	0.466	0.472	0.992	0.968	0.578	0.435	0.412	1	0.927	0.784	0.529	0.687
LCLC-97TM1	0.662	0.896	0.397		0.247	0.196	0.2	0.228	0.282	0.196	1.78	1.54		1.74	1	1.03	1.04	0.813	0.902	0.937
LOU-NH91	0.561	0.526	0.439	0.343	0.377	0.523	0.565	0.541	0.542	0.558	0.817	0.77	0.537	0.518	0.517	0.92	0.83	0.697	0.47	0.525
LU99A	1.03	0.97	0.86	0.783	0.589	0.428	0.431	0.378	0.439	0.435	1.15	0.845	0.641	0.862	0.694	0.872	0.886	0.853	0.493	0.476
LXF-289	1.03	1.04	0.932	0.728	0.646	0.624	0.583	0.615	0.635	0.559	1.04	1.02	0.856	0.737	0.645	1.06	1.02	0.982	0.936	0.882
NCI-H23	1.44	1.16		0.856	0.512	0.496	0.584	0.541	0.42	0.531	1.34	1.17		0.688	0.698	1.05	0.909	0.978	0.853	0.862
NCI-H322M	1.2	1.26	1.22	1.58	1.55	0.455	0.452	0.514	0.489	0.521	0.572	0.659	0.437	0.876	0.783	1.51	1.24	1.22	0.71	0.8
NCI-H460	1.09	1.03	0.716	0.5	0.26	0.145	0.199	0.174	0.152	0.166	1.93	0.994	0.656	0.202	0.299	1.06	0.902	0.978	0.426	0.16
NCI-H520	0.749	0.614	0.537	0.349	0.239	0.255	0.233	0.194	0.174	0.2	1	0.897	0.632	0.385	0.312	0.962	0.994	0.755	0.603	0.429
